Measured values: patent US10398682B2, “Methods and compositions to prevent or treat bacterial infections” (THE BOARD OF REGENTS OF THE UNIVERSITY OF TEXAS SYSTEM, priority 2013, dated 2019)
≈ marks a conversion by molar mass, not a printed value.

Assays:
[1] = test system: Acinetobacter baumannii; test: SIgA breakdown / secretory component liberation by Acinetobacter baumannii (Western blot); type: cell-based; details: for SC liberation / SIgA reduction: 2 hours after incubation
Procedure: Acinetobacter baumannii was incubated with 50 μg/mL SIgA to examine breakdown of the immunoglobulin. Breakdown of SIgA by A. baumannii was observed by liberation of secretory component from dimeric IgA. Goat anti-human secretory component (free and bound) antibody was used to monitor this occurrence though Western blot. A mixture of A. baumannii strain CI 79 was prepared in three concentrations—10^7, 10^6, and 10^5 CFU/mL—to determine whether SIgA breakdown was dose dependent with respect to bacterial concentration FIG. 1A. […] Next, two competitive inhibitors of reductase enzymes targeting the thioredoxin fold (-C-X-X-C-) motif typically found in thiol-reductase enzymes (thioredoxin, glutathione, thioredoxin reductase, etc) were identified. The first, dithionitrobenzoic acid (Ellman's reagent) is often used as a colorimetric substrate to monitor thioredoxin activity as it produces a bright yellow color upon cleavage of the disulfide bond within the molecule. The second is PX-12. […] Although not shown here, inhibition was still evident at 24 hours with Ellman's reagent, PX-12 inhibition seemed to be overcome by the bacteria after about 12 hours. […] (Error bars represent±SEM in all graphs; statistical differences determined by ANOVA with Dunnett correction; *significance p<0.01; **p<0.001).

[2] = test system: Acinetobacter baumannii; test: Repeat MIC experiment performed to CLSI standards; type: cell-based
[3] = mouse, in vivo; cited from earlier work
[4] = test system: A. baumannii strain CI 79; test: Bacterial adherence to mouse intestinal sections; type: cell-based, Acinetobacter baumannii
Procedure: Intestinal sections were cut down one side to expose the inner lumen of the intestine and individually placed in suspensions of A. baumannii strain CI 79 (10^7 CFU/mL). The sections were incubated in this mixture for 30 minutes, washed twice in 250 volumes of sterile PBS and soaked in 500 volumes of PBS (volume of section ˜50-100 μL) for five minutes. The remaining bound bacteria were enumerated through homogenization of each section into single cell suspensions in 10 mL sterile PBS followed by dilution plating.

[5] = humans; 300 mg/m^2 dose level; cited from earlier work
[6] = test system: multi-drug resistant (MDR) Acinetobacter baumannii clinical isolates; test: Minimum inhibitory concentration (MIC) determination; type: cell-based
Procedure: PX-12 concentrations used in these experiments approximated the concentration reported “well tolerated” by mice (˜500 μg/mouse; 500 μg/mL for this experiment). […] Furthermore, this concentration was also bactericidal leading us to believe it may potentially be useful as a new antimicrobial compound for treating MDR Acinetobacter baumannii. (Bacterial concentrations used in presented studies ˜100× higher than recommended by CLSI standards)

[7] = cation adjusted Mueller Hinton broth, ~5×10^5 CFU/mL, 64 to 0.5 μg/mL tested

O=C(O)c1cc(SSc2ccc([N+](=O)[O-])c(C(=O)O)c2)ccc1[N+](=O)[O-] [dithionitrobenzoic acid]
SC liberation ([1]; inhibitor 1 mM): completely ablated | SIgA reduction ([1]; inhibitor 1 mM): completely ablated | inhibition of SIgA reduction at 24 hours ([1]; 24 hours, not shown): still evident | SIgA breakdown by Acinetobacter baumannii ([1]; after addition of the substrate, concentration not given): significantly reduced

CCC(C)SSc1ncc[nH]1 (stereo not drawn) [PX-12, 1-methylpropyl 2-imidazolyl disulfide]
SC liberation ([1]; inhibitor 15 μg/mL): completely ablated | SIgA reduction ([1]; inhibitor 15 μg/mL): completely ablated | time after which inhibition is overcome by the bacteria ([1]; not shown): about 12 hours | SIgA breakdown by Acinetobacter baumannii ([1]; up to 2 hours following treatment with 18 μg/mL): significantly reduced | MBC [2, 7]: low | MIC [2, 7]: low | type of antimicrobial activity ([2]; concluded from MIC and MBC): bactericidal activity | concentration reported well tolerated [3]: ~500 μg/mouse | bacterial adherence to intestinal sections ([4]; 18 μg/mL, sections from WT C57BL/6 mice): significantly inhibits | reduction of bacterial attachment ([4]; WT intestinal sections as 100% control, A. baumannii CI 79 10^7 CFU/mL, 30 minutes): 40% | dose-limiting toxicities [5]: Grade 3 hypoxia and Grade 2 reversible bilateral pneumonitis | bactericidal effect at the MIC ([6]; 31.25 μg/mL): bactericidal | bacterial pellet size ([6]; 500 μg/mL): visible decrease | MIC ([6]; Acinetobacter baumannii, MDR clinical isolates, with one exception, bacterial concentrations ~100× higher than CLSI): 31.2 µg/mL (≈ 166 µM)
